In US11826435B2, “Conduritol aziridine derivatives and uses thereof” (University of Saskatchewan, priority 2017, dated 2023):

Experiments:
[1] = target: Cerezyme (Recombinant GCase) (Homo sapiens (Human), UniProt P04062, R534H); assay: Inactivation assay: residual Cerezyme activity with 2,4-DNP-β-Glc substrate; assay type: biochemical; settings: 37° C., pH 5.5
Method: Inactivation solutions contained a final concentration of 16.55 nM of Cerezyme® (Recombinant GCase) in 200 μL of Reaction Buffer (50 mM acetate, 0.2% v/v Triton X-100, 0.3% w/v sodium taurocholate, pH 5.5). […] These enzyme Reaction Buffers were brought to 37° C. and spiked with a corresponding inhibitor to make the final inhibitor concentration either 20 nM, 40 nM, 60 nM, 80 nM, 120 nM, 160 nM and 200 nM. Once the inhibitor was added this was considered time=0 minutes. Meanwhile a 96 well plate inside a Biotek Synergy 4 hybrid multi-mode reader at 37° C. was being incubated. In the wells of the plate were waiting a high concentration (3.2 mM) of 2,4-DNP-β-Glc substrate in 180 μL of Reaction Buffer. […] Once all the aliquots were added the solution in the wells was measured for absorbance at 400 nm for 8 minutes. […] Inactivation rates for varying inhibitor concentrations were calculated using GraphPad Prism software and Equation 2 (below). […]
Small aliquots of these reaction mixtures were withdrawn and diluted 20-fold in 96 well plates containing a final concentration of 4 mM of the substrate 2,4-DNP-β-D-Glc. […] Residual enzymatic activity at different time points and concentrations was monitored by quantifying the release of 2,4-DNP after 2,4-DNP-3-D-Glc cleavage by Cerezyme®. […]

[2] = target: Cerezyme, a recombinant form of GCase (Homo sapiens (Human), UniProt P04062, R534H); settings: cited from earlier work
[3] = target: GCase in the presence of Saposin C (Homo sapiens (Human), UniProt P04062); assay: GCase inactivation rate in the presence of Saposin C; assay type: biochemical; settings: in words
[4] = in words; cited from earlier work
[5] = target: GCase (Homo sapiens (Human), UniProt P04062); settings: cited from earlier work; for ki/Ki previously reported: previously reported (ref 44)
[6] = target: GCase over GBA2 and GBA3 (Homo sapiens (Human), UniProt P04062); settings: in words; cited from earlier work
Chain of GCase over GBA2 and GBA3 (P04062 40-536): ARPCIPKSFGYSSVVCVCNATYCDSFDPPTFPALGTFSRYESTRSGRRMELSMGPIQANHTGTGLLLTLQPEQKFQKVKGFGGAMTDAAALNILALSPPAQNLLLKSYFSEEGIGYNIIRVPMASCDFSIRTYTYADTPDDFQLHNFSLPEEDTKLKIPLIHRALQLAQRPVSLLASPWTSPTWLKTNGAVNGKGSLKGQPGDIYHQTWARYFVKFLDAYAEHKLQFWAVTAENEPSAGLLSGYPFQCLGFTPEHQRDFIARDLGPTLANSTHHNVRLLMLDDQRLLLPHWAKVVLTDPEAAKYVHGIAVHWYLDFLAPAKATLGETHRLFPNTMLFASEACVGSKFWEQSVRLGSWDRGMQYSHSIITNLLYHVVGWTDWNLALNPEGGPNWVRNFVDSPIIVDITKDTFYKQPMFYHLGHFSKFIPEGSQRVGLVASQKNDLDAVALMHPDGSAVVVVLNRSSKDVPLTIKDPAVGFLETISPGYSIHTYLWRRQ

Chain of GCase (P04062 40-536): as above
Chain of Cerezyme (Recombinant GCase) (P04062 40-536 R534H limits assumed): as the sequence (P04062 40-536) above, with R495H counted along it
Chain of Cerezyme, a recombinant form of GCase (P04062 40-536 R534H limits assumed): as the sequence (P04062 40-536) above, with R495H counted along it
Chain of GCase in the presence of Saposin C (P04062 40-536): as the sequence (P04062 40-536) above

O[C@H]1[C@H](O)[C@@H](O)[C@H]2[C@@H]([C@@H]1O)N2CCCCC#Cc1ccc(F)cc1 (mixture of isomers) [Compound 34, (±)-(1R,2S,3R,4R,5S,6S)-7-(6-(4-fluorophenyl)hex-5-yn-1-yl)-7-azabicyclo[4.1.0]heptane-2,3,4,5-tetraol]
ki/Ki [1]: 85000 ± 1670 M⁻¹ s⁻¹

O=[N+]([O-])c1ccc(OC2O[C@H](CO)[C@@H](O)[C@H](O)[C@H]2F)c([N+](=O)[O-])c1 (stereo partly drawn) [Compound 1.1, β-2,4-dinitrophenyl-fluorodeoxyglucose]
t½ of glucosyl-enzyme [2]: > 21.67 h

N-octyl conduritol aziridine [Compound 1.7]
inactivation rates towards GCase with Saposin C [3]: enhanced | cell permeability [4]: cell permeable | ki/Ki [1]: 78300 ± 4170 M⁻¹ s⁻¹ | ki/Ki ([5]; inhibition of GCase, reported data): 25.0 μM^−1/min^−1 | ki/Ki previously reported [5]: 61170 ± 1170 M⁻¹ s⁻¹ | ki ([5]; rate constant of inactivation of GCase, reported data): 0.120 min⁻¹ | selectivity for GCase over GBA2 and GBA3 [6]: selective inhibition of GCase over GBA2 and GBA3

butyl conduritol aziridine
ki/Ki previously reported [5]: 63.3 ± 1.7 M⁻¹ s⁻¹

hexyl conduritol aziridine
ki/Ki previously reported [5]: 10700 ± 500 M⁻¹ s⁻¹
